Biological target: Homeodomain-interacting protein kinase 1 (Homo sapiens) (UniProt Q86Z02)
Assay: HIPK1 kinase inhibitors, dose response, biochemical, Z'-LYTE, FRET, protease-coupled, direct format (AID 1671292)
Details: Z'-LYTE FRET kinase assay, recombinant HIPK1

Sequence of Homeodomain-interacting protein kinase 1 (Homo sapiens) (Q86Z02 whole entry, looked up): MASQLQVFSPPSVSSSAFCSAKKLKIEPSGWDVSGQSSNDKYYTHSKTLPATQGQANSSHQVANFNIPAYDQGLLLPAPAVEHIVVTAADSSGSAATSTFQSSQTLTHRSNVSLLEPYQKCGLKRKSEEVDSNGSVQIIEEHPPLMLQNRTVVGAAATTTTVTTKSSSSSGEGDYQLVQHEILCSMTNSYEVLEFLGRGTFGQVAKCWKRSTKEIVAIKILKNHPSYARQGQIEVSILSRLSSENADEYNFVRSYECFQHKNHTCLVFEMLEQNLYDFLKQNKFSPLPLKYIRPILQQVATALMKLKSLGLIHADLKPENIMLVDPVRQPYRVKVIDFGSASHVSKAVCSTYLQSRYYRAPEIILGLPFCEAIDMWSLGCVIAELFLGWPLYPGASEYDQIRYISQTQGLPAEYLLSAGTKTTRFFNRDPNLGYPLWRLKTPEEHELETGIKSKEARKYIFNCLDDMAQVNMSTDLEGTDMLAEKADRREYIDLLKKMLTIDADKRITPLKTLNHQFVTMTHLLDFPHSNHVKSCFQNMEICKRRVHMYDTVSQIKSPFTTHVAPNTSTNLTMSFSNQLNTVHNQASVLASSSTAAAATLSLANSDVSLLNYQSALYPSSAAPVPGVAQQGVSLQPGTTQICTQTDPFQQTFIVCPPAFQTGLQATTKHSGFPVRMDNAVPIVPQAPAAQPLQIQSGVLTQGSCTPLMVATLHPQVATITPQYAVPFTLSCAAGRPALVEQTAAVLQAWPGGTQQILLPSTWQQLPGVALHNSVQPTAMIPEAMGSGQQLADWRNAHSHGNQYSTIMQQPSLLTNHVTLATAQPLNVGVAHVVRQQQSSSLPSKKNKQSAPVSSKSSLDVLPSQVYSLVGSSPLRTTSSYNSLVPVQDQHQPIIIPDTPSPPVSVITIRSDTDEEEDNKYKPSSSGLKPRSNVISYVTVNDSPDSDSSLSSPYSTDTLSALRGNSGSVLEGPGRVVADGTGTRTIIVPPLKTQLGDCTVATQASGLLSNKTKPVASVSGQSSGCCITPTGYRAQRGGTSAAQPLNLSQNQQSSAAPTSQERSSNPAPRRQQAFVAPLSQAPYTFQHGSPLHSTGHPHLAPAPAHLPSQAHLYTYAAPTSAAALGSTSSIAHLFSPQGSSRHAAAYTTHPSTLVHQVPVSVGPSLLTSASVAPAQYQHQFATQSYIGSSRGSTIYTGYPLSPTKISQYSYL

IC50: 4.47 µM
SMILES: Brc1c(Br)c(Br)c2n[nH]nc2c1Br

Reference: PubChem BioAssay AID1671292
